# According to BindingDB's records for doi:10.1021/bi00152a045 (Mcmaster University, 1992):
# Target: Protein kinase C alpha type (Rattus norvegicus, UniProt P05696)
# Test: Mixed Micelle Assay
# Settings: pH 7.5; 30 °C
# Description: The triton X-100 assay previously described by Bell and co-workers were used to measure enzyme activity.
row,SMILES,IC50 [µM]
1,"CC(C)CCCC(C)C1CCC2C3CC=C4CC(C(=O)OC(CN(C)C)CN(C)C)CCC4(C)C3CCC12C (stereo not drawn) [Amphiphile, V]",643
2,"CC(C)CCCC(C)C1CCC2C3CC=C4CC(C(=O)NCCN(C)C)CCC4(C)C3CCC12C (stereo not drawn) [Amphiphile, III]",258
3,"CC(C)CCCC(C)C1CCC2C3CC=C4CC(C(=O)NCCN)CCC4(C)C3CCC12C (stereo not drawn) [Amphiphile, VII]",246
4,"CCCCCCCCCCCCCCCCCCCCCCCC(=O)OC(CN(C)C)C[N+](C)(C)C (stereo not drawn) [Amphiphile, XVII]",40
5,"CC(C)CCCC(C)C1CCC2C3CC=C4CC(C(=O)NCC[N+](C)(C)C)CCC4(C)C3CCC12C (stereo not drawn) [Amphiphile, IV]",12
6,"CCCCCCCCCCCCCCCCCCCCCC(=O)OC(CN(C)C)C[N+](C)(C)C (stereo not drawn) [Amphiphile, XVI]",26

# More lines, now with the values ahead:
row,IC50 [µM],SMILES
1,11,"CC(C)CCCC(C)C1CCC2C3CC=C4CC(C(=O)OC(CN(C)C)C[N+](C)(C)C)CCC4(C)C3CCC12C (stereo not drawn) [Amphiphile, VI]"
2,191,"CC(C)CCCC(N)C1CCN2C3OC=C4CC(OC(=O)CCC(=O)NCCN(C)C)CCC4(C)C3CCC12C (stereo not drawn) [Amphiphile, VIII]"
3,164,"CC(C)CCCC(N)C1CCN2C3OC=C4CC(OC(=O)CCC(=O)OCCN(C)CCN(C)C)CCC4(C)C3CCC12C (stereo not drawn) [Amphiphile, XII]"
4,59,"CC(C)CCCC(N)C1CCN2C3OC=C4CC(OC(=O)CCC(=O)NCC[N+](C)(C)C)CCC4(C)C3CCC12C (stereo not drawn) [Amphiphile, IX]"
5,408,"CC(C)CCCC(N)C1CCN2C3OC=C4CC(OC(=O)CCC(=O)OC(CN(C)C)CN(C)C)CCC4(C)C3CCC12C (stereo not drawn) [Amphiphile, X]"
6,20,"CC(C)CCCC(N)C1CCN2C3OC=C4CC(OC(=O)CCC(=O)OCCN(C)CC[N+](C)(C)C)CCC4(C)C3CCC12C (stereo not drawn) [Amphiphile, XIII]"
7,15,"CC(C)CCCC(N)C1CCN2C3OC=C4CC(OC(=O)CCC(=O)OC(CN(C)C)C[N+](C)(C)C)CCC4(C)C3CCC12C (stereo not drawn) [Amphiphile, XI]"
